Drawing on publication PMC10054454, “Phenotypic Discovery of Thiocarbohydrazone with Anticancer Properties and Catalytic Inhibition of Human DNA Topoisomerase IIα” (Pharmaceuticals, 2023), this text covers inhibition for two molecules.

Broadly, the inhibition is the relative decrease from the control value, in per cent. Higher therefore signals a response far below the control.

Assay [1] deals with T1, human DNA topoisomerase IIα (Homo sapiens, UniProt P11388).
T1 construct: gene TOP2A
The assay can be described thus: topo IIα-mediated kDNA decatenation and supercoiled pBR322 relaxation gel assays; HTS relaxation assay; cleavage assay (not a poison). The format is biochemical.

The target in assay [2] is T1, human DNA topoisomerase IIα. The assay can be described thus: topo IIα cleavage assay (linear plasmid accumulation), HTS relaxation and decatenation assays. Format: biochemical.

T1 sequence (P11388 whole entry): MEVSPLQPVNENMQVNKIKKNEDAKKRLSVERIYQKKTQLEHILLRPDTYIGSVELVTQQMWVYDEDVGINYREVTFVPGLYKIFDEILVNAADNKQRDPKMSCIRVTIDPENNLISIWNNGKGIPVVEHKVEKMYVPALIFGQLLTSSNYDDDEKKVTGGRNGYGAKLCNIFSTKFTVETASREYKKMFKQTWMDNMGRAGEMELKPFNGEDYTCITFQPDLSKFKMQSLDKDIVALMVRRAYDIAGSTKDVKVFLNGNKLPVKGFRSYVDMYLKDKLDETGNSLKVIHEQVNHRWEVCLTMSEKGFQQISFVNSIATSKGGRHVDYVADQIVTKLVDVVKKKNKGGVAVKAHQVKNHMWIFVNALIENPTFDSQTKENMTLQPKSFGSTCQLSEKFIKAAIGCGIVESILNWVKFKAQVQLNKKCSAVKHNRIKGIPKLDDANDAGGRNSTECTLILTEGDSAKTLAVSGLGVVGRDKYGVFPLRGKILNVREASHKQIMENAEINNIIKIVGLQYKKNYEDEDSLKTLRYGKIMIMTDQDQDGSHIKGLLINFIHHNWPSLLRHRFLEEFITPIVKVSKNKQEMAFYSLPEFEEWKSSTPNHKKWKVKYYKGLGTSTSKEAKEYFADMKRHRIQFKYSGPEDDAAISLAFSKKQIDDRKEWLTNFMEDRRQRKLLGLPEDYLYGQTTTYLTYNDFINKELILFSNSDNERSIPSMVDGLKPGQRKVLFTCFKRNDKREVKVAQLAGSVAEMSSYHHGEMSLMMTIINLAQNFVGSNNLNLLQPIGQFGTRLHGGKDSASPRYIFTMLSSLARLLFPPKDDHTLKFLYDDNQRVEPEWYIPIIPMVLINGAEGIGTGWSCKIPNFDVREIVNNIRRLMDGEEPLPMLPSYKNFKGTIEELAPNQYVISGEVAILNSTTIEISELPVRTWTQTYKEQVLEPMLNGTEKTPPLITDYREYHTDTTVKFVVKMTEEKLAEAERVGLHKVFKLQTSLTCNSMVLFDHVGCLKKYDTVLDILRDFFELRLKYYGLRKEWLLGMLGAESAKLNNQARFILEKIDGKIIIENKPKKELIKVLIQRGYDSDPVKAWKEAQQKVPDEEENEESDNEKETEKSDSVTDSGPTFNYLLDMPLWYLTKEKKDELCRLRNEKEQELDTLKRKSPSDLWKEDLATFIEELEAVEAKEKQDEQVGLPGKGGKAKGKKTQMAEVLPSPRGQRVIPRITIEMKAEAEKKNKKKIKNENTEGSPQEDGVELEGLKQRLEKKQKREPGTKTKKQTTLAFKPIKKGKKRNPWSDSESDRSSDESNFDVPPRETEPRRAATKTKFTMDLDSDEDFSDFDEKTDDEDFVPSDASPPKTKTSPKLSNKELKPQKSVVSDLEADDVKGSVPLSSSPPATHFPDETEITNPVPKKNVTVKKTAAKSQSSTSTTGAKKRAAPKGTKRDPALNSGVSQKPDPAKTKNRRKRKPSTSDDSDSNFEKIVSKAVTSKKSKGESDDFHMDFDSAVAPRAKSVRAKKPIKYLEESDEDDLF

For the molecule `Oc1ccccc1C=NNC(=S)NN=Cc1ccccc1O` [compound 2, 1,5-bis(salicylidene)thiocarbohydrazide], 50 µM produced 56% inhibition in assay [1].

For `COc1cc([C@@H]2c3cc4c(cc3[C@@H](O[C@@H]3O[C@@H]5CO[C@@H](C)O[C@H]5[C@H](O)[C@H]3O)[C@H]3COC(=O)[C@H]23)OCO4)cc(OC)c1O` [etoposide], testing at 50 µM in assay [2] gave an inhibition of 70%.
